Experimental data reported in US7807181B2, “Neisseria mutants, lipooligosaccharides and immunogenic compositions” (Emory University, priority 2002, dated 2010).

Key:
[1] = target: T1, CD14/TLR4-MD-2 receptor complex (Homo sapiens, UniProt O00206+Q9Y6Y9); assay: Activation of receptor complex by synthetic KDO; format: cell-based; details: dose ranges from 10 ng-100 mg; data not shown
T1 construct: endogenous in cells
Text: Acid hydrolysis might affect lipid A phosphate head groups and contribute to attenuation.

[2] = tested on: Psf protein (arabinose 5-phosphate isomerase); assay: Colorimetric assay for keto-pentoses with purified Psf protein; format: biochemical, N. meningitidis; details: 37° C., 10 min, 100 mM Tris-HCl pH 7.5, A540
Text: Psf is the arabinose 5-phosphate isomerase of N. meningitidis. […] To determine if Psf had isomerase activity, a colorimetric assay for keto-pentoses (Bigham et al., 1984) was first conducted using the purified Psf protein, which contained a C-terminal 6×His tag (FIG. 9A). […] The reaction was dependent on the concentration of Psf protein. […] The NMR chemical shifts of the phosphoryl groups of arabinose 5-P and ribulose 5-P are different, thus ^31P NMR can monitor the interconversion between the two sugars. […] The LOS defect in the psf mutant, but not the kdsB mutant, can be complemented by (exogenous) supplementation of arabinose in the growth medium (FIG. 9B), consistent with the identification of the Psf protein as an arabinose 5-phosphate isomerase.
The procedure of Dische and Borenfreund (Dische and Borenfreund, 1951, as modified by Bigham (Bigham, 1984) was used to determine the presence of ketopentoses. Briefly, enzyme was incubated at 37° C. for 10 min in the presence of various aldopentoses (ribose 5-phosphate, erythrose 4-phosphate, glucose 6-phosphate, and arabinose) and 100 mM Tris-HCl (pH 7.5) buffer and assayed as follows. A 250 μl aliquot of the reaction solution was quenched with the addition of 50 μl of a 1.5% cysteine solution followed immediately by 1.5 ml of concentrated H2S04. A 50 μl aliquot of 0.12% carbazole in 95% ethanol was then added, and the solution was heated at 37° C. for 30 min. The absorbance was read at 540 nm. As reported by Bigham et al. (1984), the conversion of 1 μmol of A5P to 1 μmol of Ru5P gave an ΔA of 8.2.

[3] = tested on: differentiated U937 and THP-1 human macrophage-like cells; assay: Cytokine (TNFa, IL-1b, IL-8, IL-10) induction in macrophage-like cells stimulated with endotoxin; format: cell-based; details: 2 mg/ml added during the induction assay
Text: The meningococcal mutant LOS preparations were used to investigate the role of endotoxin structure on the activation of macrophages via the CD14/TLR4-MD-2 receptor complex. Endotoxins were quantified and standardized based on lipid A content. Cytokine (TNFa, IL-1b, IL-8 or IL-10) induction, nitric oxide and reactive oxygen species (ROS) release from differentiated U937 and THP-1 human macrophage-like cells or RAW264.7 murine macrophages stimulated with endotoxin (0.56 pmole/ml, approximately 1 ng/ml) was studied.
Alternatively, LOS from a genetically-defined mutants of the serogroup B N. meningitidis strain NMB (encapsulated, L2 immunotype) (listed in Table I) were initially extracted by the phenol-water method (21). Residual membrane phospholipids (unsaturated fatty acyl residues C18:0) were removed by repeated extraction of the dry LOS samples with 9:1 ethanol:water. The expected LOS fatty acyl components of 3-OHC12:0, 3-OHC14:0 and C12:0 and the absence of membrane phospholipids was assessed by Mass spectroscopy (GC-MS). LOS preparations were examined by SDS-PAGE (22), quantitated and standardized based on the number of lipid A molecules per sample (23). […] The resulting methyl b-trimethylsilylmyristate was identified and quantified by GC-MS analysis. […]

T1 sequence (O00206 24-839): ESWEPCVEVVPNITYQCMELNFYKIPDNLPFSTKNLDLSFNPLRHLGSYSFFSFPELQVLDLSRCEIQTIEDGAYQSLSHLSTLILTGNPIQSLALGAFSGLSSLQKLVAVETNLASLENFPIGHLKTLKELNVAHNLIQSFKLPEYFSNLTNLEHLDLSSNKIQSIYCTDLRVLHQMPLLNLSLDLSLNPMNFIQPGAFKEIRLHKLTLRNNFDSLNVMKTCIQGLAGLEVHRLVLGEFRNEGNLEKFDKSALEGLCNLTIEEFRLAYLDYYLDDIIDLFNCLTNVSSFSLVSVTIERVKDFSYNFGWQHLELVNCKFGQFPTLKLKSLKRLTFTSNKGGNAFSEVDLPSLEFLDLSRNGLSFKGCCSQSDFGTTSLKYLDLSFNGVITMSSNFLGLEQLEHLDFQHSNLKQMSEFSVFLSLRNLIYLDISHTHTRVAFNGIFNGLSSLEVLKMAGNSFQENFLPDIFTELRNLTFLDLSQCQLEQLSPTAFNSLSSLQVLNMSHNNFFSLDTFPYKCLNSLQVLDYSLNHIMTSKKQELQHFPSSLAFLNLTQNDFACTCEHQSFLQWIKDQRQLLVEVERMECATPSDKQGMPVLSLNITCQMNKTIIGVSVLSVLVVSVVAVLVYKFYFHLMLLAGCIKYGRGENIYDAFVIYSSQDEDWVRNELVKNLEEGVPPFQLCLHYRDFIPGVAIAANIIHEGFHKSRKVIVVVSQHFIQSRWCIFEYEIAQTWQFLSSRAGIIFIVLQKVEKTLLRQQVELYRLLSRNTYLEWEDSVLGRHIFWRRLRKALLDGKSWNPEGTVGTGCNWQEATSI
T1 sequence (Q9Y6Y9 19-160): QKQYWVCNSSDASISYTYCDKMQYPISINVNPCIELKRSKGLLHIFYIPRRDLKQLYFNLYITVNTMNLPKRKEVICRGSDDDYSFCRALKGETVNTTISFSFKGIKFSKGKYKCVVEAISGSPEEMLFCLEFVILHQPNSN

Compound	substrate for the Psf protein [2]	further results
O=C(O)C(=O)CC(O)C(O)C(O)C(O)CO (stereo not drawn) [Synthetic KDO, 2-keto-3-deoxyoctonic acid]		activation of the CD14/TLR4-MD-2 receptor complex [1]: did not activate
O=C[C@H](O)[C@H](O)[C@H](O)COP(=O)(O)O [ribose 5-phosphate]	did not serve as substrates	
O=C[C@H](O)[C@H](O)COP(=O)(O)O [erythrose 4-phosphate]	did not serve as substrates	
polymyxin B		effect on meningococcal LOS-induced cytokine release [3]: neutralized
O=C[C@@H](O)[C@H](O)[C@H](O)CO [arabinose]	did not serve as substrates	
O=C[C@H](O)[C@@H](O)[C@H](O)[C@H](O)COP(=O)(O)O [glucose 6-phosphate]	did not serve as substrates	
